The target of this assay is 3',5'-cyclic-AMP phosphodiesterase 4D (Homo sapiens, UniProt Q08499). The experiment in a line: Inhibition of human PDE4D2 catalytic domain (86 to 413aa) expressed in Escherichia coli strain BL21 after 15 mins by liquid scintillation counting in presence of [3H]-cAMP.

Among the data in ChEMBL document CHEMBL3233007, “Prenylated coumarins: natural phosphodiesterase-4 inhibitors from Toddalia asiatica” (J Nat Prod, 2014) are IC50 values, retold here.

The term IC50 denotes the point on the concentration scale where inhibition reaches its midpoint.

3',5'-cyclic-AMP phosphodiesterase 4D, sequence (Q08499 whole entry, the tested form may be a part): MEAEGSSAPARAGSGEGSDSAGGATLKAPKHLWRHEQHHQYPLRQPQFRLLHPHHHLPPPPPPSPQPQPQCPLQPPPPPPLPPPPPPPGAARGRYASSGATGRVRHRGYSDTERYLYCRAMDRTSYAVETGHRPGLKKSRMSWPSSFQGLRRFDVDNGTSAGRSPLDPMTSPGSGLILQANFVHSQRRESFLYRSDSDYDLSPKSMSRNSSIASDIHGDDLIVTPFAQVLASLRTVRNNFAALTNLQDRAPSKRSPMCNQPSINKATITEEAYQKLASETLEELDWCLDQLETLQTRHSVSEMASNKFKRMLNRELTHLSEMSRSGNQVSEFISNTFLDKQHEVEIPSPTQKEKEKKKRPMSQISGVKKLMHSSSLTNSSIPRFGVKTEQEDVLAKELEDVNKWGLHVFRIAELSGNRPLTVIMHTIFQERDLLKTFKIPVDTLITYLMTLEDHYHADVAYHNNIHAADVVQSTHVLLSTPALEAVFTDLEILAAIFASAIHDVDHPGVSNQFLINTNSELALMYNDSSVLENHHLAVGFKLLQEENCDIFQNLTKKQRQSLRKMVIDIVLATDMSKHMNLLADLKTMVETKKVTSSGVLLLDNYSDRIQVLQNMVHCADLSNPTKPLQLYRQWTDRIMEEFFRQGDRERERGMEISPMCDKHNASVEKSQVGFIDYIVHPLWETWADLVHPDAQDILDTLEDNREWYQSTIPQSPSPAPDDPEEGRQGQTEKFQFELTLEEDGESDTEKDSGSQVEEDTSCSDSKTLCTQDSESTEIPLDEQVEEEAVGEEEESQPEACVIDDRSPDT

Consider `COc1cc2oc(=O)ccc2c(OC)c1C[C@H](OC(=O)[C@]1(O)C[C@@H](O)[C@@H](O)[C@H](OC(=O)/C=C/c2ccc(O)c(O)c2)C1)C(C)(C)O`, for which the IC50 is 16.7 µM.
Under `COc1cc(O)c(/C=C/C(=O)O[C@@H](Cc2c(OC)cc3oc(=O)ccc3c2OC)C(C)(C)O)c(OC)c1CC=C(C)C` stands 7.81 µM; under `COc1cc(OC)c2ccc(=O)oc2c1/C=C/[C@H]1C[C@@H](C=C(C)C)c2c(c3ccccc3n(C)c2=O)O1`, 0.14 µM.
Then `COc1cc2c(c3oc(=O)ccc13)CCC(C)(C)O2`, with 2.2 µM; and `COc1cc2ccc(=O)oc2c2c1OC(C)(C)CC2`, with 1.53 µM; and `CC1(C)C=Cc2c(c(O)cc3ccc(=O)oc23)O1`, with 2.38 µM.
Under `COc1cc2oc(=O)ccc2c(OC)c1CC=C(C)C` stands 9.98 µM.
As for `COc1cc2oc(=O)ccc2c(OC)c1CCC(C)C`, the IC50 was determined as 11.5 µM.
Then `COc1cc(OC)c2ccc(=O)oc2c1CC=C(C)C`, with 6.82 µM; and `COc1cc(OC)c2ccc(=O)oc2c1CCC(C)C`, with 10.2 µM.
Under `COC1=CC(=O)c2cc(C)cc(-c3c(OC)cc(OC)c4ccc(=O)oc34)c2C1=O` stands 5.51 µM; under `COc1cc2c(c3oc(=O)ccc13)C=CC(C)(C)O2`, 1.87 µM.
